Assay results: patent publication US6835734B2, “1,3-dioxolanes with antitussive activity” (Dompé S.p.A., priority 2000, dated 2004)

Tests used:
[1] = tested on: male Dunkin-Hartley Guinea pigs; assay: capsaicin aerosol-induced cough after intravenous administration; format: in vivo, Guinea pig; settings: for recorded cough strokes / inhibition of the response to the tussigenic stimulus: 10 mg/kg intravenous, 0.0045% capsaicin aerosol 5 minutes after administration; for recorded cough strokes: during the 4 minute aerosol; for inhibition of the response to the tussigenic stimulus: strokes recorded during 4 minute aerosol
Procedure: The tests were carried out on male Dunkin-Hartley Guinea pigs (4-6 animals for group), which were subjected to aerosol of a 0.0045% (p/v) capsaicin aqueous solution [Lavezzo A., Pulm. Pharmacol., 5, 143-147, 1992; Gallico L. et al, Br. J. Pharmacol., 112, 795-800. 1994] 5 minutes after intravenous administration of 0.5 ml of a (−)-1,2-cyclohexylidene-3-(4-phenyl-piperazin-1-yl)-propane-1,2-diol fumarate solution (DF 1689A, 10 mg/kg) compared with 0.5 ml of a levodropropizine solution, pH 4.5 (10 mg/kg) and with an equal volume of saline solution (control).

[2] = tested on: male Dunkin-Hartley Guinea pigs; assay: cough strokes after aerosol administration of the medicaments; format: in vivo, Guinea pig; settings: aerosol with 1% (w/v) aqueous solution for 10 minutes, compared with saline aerosol controls

Compound | recorded cough strokes [1] | inhibition of the response to the tussigenic stimulus [1] [%] | inhibition on the tussigen stimulus induced by capsaicin aerosol ([1]; 15 minutes after the intravenous administration) [%] | inhibition on the tussigen stimulus induced by capsaicin aerosol ([1]; 30 minutes after the intravenous administration) [%] | inhibitory effect on number of cough strokes [2]
O=C(O)/C=C/C(=O)O.c1ccc(N2CCN(C[C@H]3COC4(CCCCC4)O3)CC2)cc1 [DF 1689A, S(−)-1,2-cyclohexylidene-3-(4-phenyl-piperazin-1-yl)propane-1,2-diol fumarate] | 4.83±0.54 | 47.3 | 34.6 | 27.3 | about 35%
OCC(O)CN1CCN(c2ccccc2)CC1 (single isomer, unassigned; (-)) [levodropropizine, (−) 3-(4-phenyl-piperazin-1-yl)-1,2-propanediol, reference compound] | 5.17±0.54 | 43.6 | – | – | about 35%
